Reference: paper PMC9978856 (Acta Pharmaceutica Sinica. B, 2022)

Key:
Ldlr KO rats = assay: Lan treatment of Ldlr KO rats; type: in vivo, rat; settings: Lan 50 mg/kg/day p.o. for 21 days
CYP1A [1] = settings: Lan 50 mg/kg/day for 7 days; cited from earlier work
[2] = system: food-borne hypercholesteremia rat model; assay: Lan treatment in food-borne hypercholesteremia rat model; type: in vivo
CYP1A [3] = system: CYP1A
[4] = CYP1A1/2 KO compared with WT group; caffeine 5 mg/kg by gavage
CES1 = settings: cited from earlier work
[5] = HCD + Lan 10 group (10 mg/kg/day, 11 weeks) vs HCD + Sol group
[6] = HCD + Lan 50 group (50 mg/kg/day, 11 weeks) vs HCD + Sol group
[7] = RLM of KO rats compared with WT rats

## Cc1c(OCC(F)(F)F)ccnc1C[S+]([O-])c1nc2ccccc2[nH]1 (centres unmarked) [Lan, Lansoprazole]
Ldlr KO rats
  lipids in serum, including TG, LDL-C, HDL-C, and T-C: remained unchanged
  liver lipidosis (HE staining): significantly alleviated
Ldlr KO rats; Western blot
  CYP1A protein expression in the liver: significantly induced
CYP1A [1]
  increase of the metabolic activity of CYP1A in rats: 4 times
[2]; [5]
  decrease of serum LDL-C content: 40%
  decrease of serum TG concentration: 27%
  increase of HDL-C/LDL-C ratio: 170%
  reduction of serum T-C content: 39%
[2]; [6]
  decrease of serum LDL-C content: 65%
  decrease of serum TG concentration: 42%
  increase of HDL-C/LDL-C ratio: 200%
  reduction of serum T-C content: 47%
[2]; HCD-fed rats, Lan treatment, 11 weeks
  serum transaminases: reduced serum transaminases to physiological levels
[2]; both 10 and 50 mg/kg Lan groups vs HCD + Sol group, 11 weeks
  lipid accumulation in liver (oil red O staining): less than that in the HCD + Sol group

## Cn1c(=O)c2c(ncn2C)n(C)c1=O [caffeine]
CYP1A [3]; KO versus WT rats RLM
  Km of caffeine metabolism in RLM: remained unchanged
CYP1A [3]; [7]
  decrease of CLint of caffeine: 50%
  decrease of Vmax of 3-demethylation caffeine formation: 38%
[4]
  increase of AUC of caffeine: 200%

## CC(C)CCC[C@@H](C)[C@H]1CC[C@H]2[C@@H]3CC=C4C[C@@H](O)CC[C@]4(C)[C@H]3CC[C@]12C [cholesterol]
CES1
  inhibitory effect on CES1: no inhibitory effect

## C[C@@H](CO)CCC[C@@H](C)[C@H]1CC[C@H]2[C@@H]3CC=C4C[C@@H](O)CC[C@]4(C)[C@H]3CC[C@]12C [27-hydroxycholesterol]
CES1
  inhibitory effect on CES1: strong selective inhibitory effect
